Test results from publication PMC10180054, “Design, Synthesis and Biological Evaluation of Novel Pleuromutilin Derivatives Containing 6-Chloro-1-R-1H-pyrazolo[3,4-d]pyrimidine-4-amino Side Chain” (Molecules, 2023).
Values after ≈ are worked out from the molar mass of the structure shown. “Also recorded” adds a separate entry of the source. Like-named read-outs stand apart in the source and are kept apart here.

Tests used:
[1] = tested on: RAW 264.7 cells; experiment: Cytotoxicity MTT assay; format: cell-based, mouse; conditions: 16 h
Description: (§1) The presence of compounds can influence cellular basic physiological processes, suppress proliferation and even reduce cell survival, etc. In the community, MRSA generally causes respiratory infection. Therefore, cytotoxicity was evaluated to explore the effect of compounds 12c and 22c on the viability of the respiratory tract cells 16-HBE (human bronchial epithelial cell line). RAW 264.7 (mouse peritoneal macrophage cell line) and Caco-2 (human epithelial colorectal adenocarcinoma cell line) were also used to evaluate the cytotoxicity of compounds 12c and 22c by MTT assay.
Cytotoxicity of the test compounds was assessed using the conventional MTT method. RAW 264.7 murine macrophage cells, Caco-2 cells and 16-HBE were used in this experiment. The cells were seeded into 96-well plates at a density of 1.0 × 10^5 cells per well. After 4 h at 37 °C, the cells were treated with compounds 12c and 22c at various concentrations and incubated at 37 °C for 16 h. Next, MTT (0.5 mg/mL in PBS, 100 μL/well) was added sequentially to each well in a humidified atmosphere of 95% air and 5% CO2 incubator and the incubation continued for an additional four hours. […] At the end of this period, the absorbance was measured at 490 nm by a microplate spectrophotometer (BIO-TEK Instruments, Winooski, VT, USA).

[2] = tested on: S. aureus 144; experiment: MIC/MBC by broth dilution (CLSI); format: cell-based; conditions: Staphylococcus aureus; S. aureus 144 (clinical strain)
How it was run: (§2)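 CLSI broth dilution used twofold compound series from 64 to 0.0625 µg/mL (stocks in water with 2.5% DMSO and 2.5% Tween-80) and a final inoculum of 5 × 10^5 CFU/mL, in triplicate. For MBC, 25 µL from wells without visible growth was plated on MH agar and cultured 24 h at 37 °C.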

[3] = tested on: S. aureus ATCC 29213; experiment: MIC/MBC by broth dilution (CLSI); format: cell-based; conditions: Staphylococcus aureus, ATCC29213
How it was run: as §2

[4] = tested on: S. aureus AD3; experiment: MIC/MBC by broth dilution (CLSI); format: cell-based; conditions: Staphylococcus aureus; S. aureus AD3 (clinical strain)
How it was run: as §2

[5] = tested on: MRSA ATCC 43300; experiment: MIC/MBC by broth dilution (CLSI); format: cell-based, Staphylococcus aureus; conditions: for MIC: MRSA ATCC 43300, broth dilution, 24 h, 37 °C
How it was run: as §2

[6] = tested on: MRSA ATCC 43300; experiment: Post-antibiotic effect (PAE); format: cell-based, Staphylococcus aureus
Description: PAE has been considered as pharmacodynamic assistance which provides a reference for the rational formulation of dosing regimen. PAE refers to the temporary suppression of bacterial growth following transient antibiotic treatment. PAE assays were conducted for compounds 12c and 22c.
PAE is calculated from growth curves on the difference in time required for the number (1 log10 CFU/mL) of drug-exposed and unexposed microbes. […] The PAE values of compounds 12c and 22c increased with increasing incubation time.
PAE of compounds 12c and 22c on MRSA ATCC 43300 was determined using MH broth according to our previous work. The final concentration of MRSA was 1 × 10^6 CFU/mL by dilution with MH broth. Compounds 12c, 22c and tiamulin were supplemented in the suspension at a final concentration of 2 × MIC and 4 × MIC, respectively. The negative control group contained untreated MRSA bacterial cells. The test tubes were incubated with a 37 °C constant temperature vibration incubator for 1 and 2 h. After incubation, the test compound was removed from the sample by diluting 1000-fold with the preheated MH broth. Next, 100 μL of suspension from each culture was 10-fold diluted in sterile saline and inoculated on MH agar plates at 0, 2, 4, 6 and 8 h after inoculation. The number of colonies was calculated after incubation at 37 °C for 24 h. The experiments were performed in triplicate.

[7] = tested on: Caco-2 cells; experiment: Cytotoxicity MTT assay; format: cell-based, human; conditions: 1~8 μg/mL, 16 h
Description: as §1
(§3) Cytotoxicity of the test compounds was assessed using the conventional MTT method. RAW 264.7 murine macrophage cells, Caco-2 cells and 16-HBE were used in this experiment. The cells were seeded into 96-well plates at a density of 1.0 × 10^5 cells per well. After 4 h at 37 °C, the cells were treated with compounds 12c and 22c at various concentrations and incubated at 37 °C for 16 h. Next, MTT (0.5 mg/mL in PBS, 100 μL/well) was added sequentially to each well in a humidified atmosphere of 95% air and 5% CO2 incubator and the incubation continued for an additional four hours. After incubation, the medium was peeled off and DMSO (150 μL/well) was added to dissolve the cells, and then the incubation was continued for 30 min. At the end of this period, the absorbance was measured at 490 nm by a microplate spectrophotometer (BIO-TEK Instruments, Winooski, VT, USA).

[8] = tested on: 16-HBE cells; experiment: Cytotoxicity MTT assay; format: cell-based, human; conditions: 1~8 μg/mL, 16 h
Description: as §1, §3

[9] = tested on: MRSA ATCC 43300; experiment: Constant concentration time–kill curves; format: cell-based, Staphylococcus aureus
Description: Time–kill kinetic assays were performed, which were used to investigate the in vitro bactericidal kinetic effect of compounds 12c, 19c, 22c and tiamulin.
Time–kill curve assays were established with the MIC value to investigate the antibacterial effect of constant drug concentration on MRSA. […] MRSA ATCC 43300 was incubated in MH broth at 37 °C for 4.5 h and diluted to 1 × 10^6 CFU/mL in MH broth. The saline control group was subjected to the same schedule but 0.9% saline water was added instead of the test compound. All the samples were incubated in an oscillating thermostatic at 37 °C, and then 100 μL of the mixture was extracted to 900 μL of sterile saline (0.9%) at 0, 3, 6, 9, 12 and 24 h, respectively. Samples were serially diluted 10-fold in sterile saline (0.9%) and inoculated onto agar plates. The colonies were counted after incubation at 37 °C for 24 h. Three independent experiments were performed according to our previous work. Time–kill curves were constructed by plotting the log10 CFU per millilitre versus time, and the change in bacterial concentration was determined.

MIC [2]: 0.5 µg/mL (≈ 0.666 µM) | MIC ([3]; S. aureus ATCC 29213, broth dilution, 24 h, 37 °C): 0.25 µg/mL (≈ 0.333 µM) | MIC [4]: 0.125 µg/mL (≈ 0.167 µM) | MIC [5]: 0.25/0.25 μg/mL | MIC ([5]; Staphylococcus aureus, read-out: MIC): 0.25 µg/mL (≈ 0.333 µM) | MBC/MIC ratio ([5]; against MRSA): ≤ 2 | melting point: 109 to 113 °C
SMILES: C=C[C@]1(C)C[C@@H](OC(=O)CSc2ccc(Nc3nc(Cl)nc4c3cnn4-c3ccc(F)c(F)c3)cc2)[C@]2(C)[C@H](C)CC[C@]3(CCC(=O)[C@H]32)[C@@H](C)[C@@H]1O [Compound 22c, 22-[4-(6-Chloro-1-(3,4-difluorophenyl)-1H-pyrazolo[3,4-d]pyrimidine-4-yl)amino-Phenylsulfanyl]-22-deoxypleuromutilin]
effect on viability of RAW 264.7 cells ([1]; 8 µg/mL): slight inhibition | effect on viability of RAW 264.7 cells ([1]; ≤8 μg/mL): no significant inhibition | MBC [2]: 1 µg/mL (≈ 1.33 µM) | MBC ([3]; S. aureus ATCC 29213): 0.5 µg/mL (≈ 0.666 µM) | MBC [4]: 0.25 µg/mL (≈ 0.333 µM) | MBC ([5]; Staphylococcus aureus, MRSA ATCC 43300, 99.9% of the bacteria killed): 0.25 µg/mL (≈ 0.333 µM) | PAE ([6]; 2 × MIC, exposure for 1 h): 0.92 h | PAE ([6]; 2 × MIC, exposure for 2 h): 2.18 h | PAE ([6]; 4 × MIC, exposure for 1 h): 0.93 h | PAE ([6]; 4 × MIC, exposure for 2 h): 2.68 h | effect on viability of Caco-2 cells [7]: no significant inhibition; also recorded: did not affect the viability | effect on viability of 16-HBE cells [8]: no significant inhibition; also recorded: did not affect the viability | MRSA killed in time–kill assay ([9]; 2 × MIC, 24 h incubation): 99.99% | reduction of MRSA in time–kill assay ([9]; 2 × MIC, 24 h incubation): −4.47 log10 CFU/mL | reduction of MRSA in time–kill assay ([9]; 4 × MIC): −5.79 log10 CFU/mL | type of bactericidal kinetics ([9]; time–kill curves, 1 to 32 × MIC): time-dependent
